Experimental data reported in article PMC11992225, “Antibacterial compounds against non-growing and intracellular bacteria” (npj Antimicrobials and Resistance, 2025).
≈ marks a conversion by molar mass, not a printed value. Read-outs that look alike come from different tables or passages of the source.

Experiments:
E. coli CFT073 (UPEC) = test: MIC, standard microdilution assay, growing UPEC; format: cell-based, Escherichia coli; details: E. coli, pH 7.4
Description: (§1) Minimal inhibitory concentrations (MICs) were determined using a standard microdilution assay protocol. CA-MHB medium buffered with 40 mM HEPES (pH 7.4) was used to determine the MICs for UPEC, P. aeruginosa, and S. aureus. […] MICs for UPEC were also determined in LPM buffered with 30 mM MES (pH 5.5). For S. flexneri, MICs were determined in tryptic soy broth (TSB). The assay was performed in triplicates.

non-growing UPEC CFT073 [1] = test: Dilution-regrowth assay (screen, hit validation, dose-response) on stationary-phase UPEC; format: cell-based, Escherichia coli; details: for OD600 at 6hr, Mean: after dilution into drug-free medium; for EC50: E. coli, pH 7.4, regrowth delay of non-growing bacteria, 1:4 CA-MHB, 24 h treatment, OD600 6 h after 2500-fold dilution, read-out: EC50; for activity in the dilution-regrowth screen: non-growing UPEC, 20 μM
Description: The cultures were incubated for 24 h in non-baffled Erlenmeyer flasks at 37 °C with shaking at 200 rpm.
The high-throughput screening (HTS) procedure was based on the protocol by Hazan and colleagues[15] and conducted at the Chemical Biology Consortium Sweden (CBCS) screening facility. […] Each plate included eight wells with 200 nl of 10 mM gatifloxacin, finafloxacin, and kanamycin solutions, along with 8-wells containing 200 nl of DMSO as controls. After 24 h incubation,100 μl of the culture was dispensed into each well of the 384-well plates for screening at a final concentration of 20 μM. The plates were sealed with parafilm and incubated at 37 °C for 24 h in closed humidified boxes, with wet paper towels added to prevent evaporation. […] The plates were incubated at 37 °C for 6 h in humidified boxes, then OD600 was measured using a microplate reader.
For hit validation, bacteria were cultivated, and the dilution-regrowth assay was conducted following the same protocol used in the primary screen. Hit compounds were dispensed into 384-well plates using the Echo® (Labcyte) system, with 200, 100, or 50 nl of a 10 mM solution in DMSO added per well, yielding final screening concentrations of 20, 10, and 5 μM, respectively. OD600 values of regrowing samples were normalized to the mean OD600 of the drug-free control. The testing was conducted in two replicates.
For UPEC, dose–response analysis was conducted at the CBCS screening facility. Bacteria were cultivated, and the dilution-regrowth assay was performed according to the HTS protocol. Compounds were dispensed into 384-well plates using the Echo® (Labcyte) system, and regrowth was assessed by measuring OD600 after 6 h of incubation at 37 °C in humidified boxes. Three biological replicates were performed.
Statistical significance of the drug effects was assessed using a one-way ANOVA followed by Dunnett’s test, comparing each treatment to the drug-free control. Statistical significance of the differences in chemical characteristics between the hit compounds and the Prestwick library was assessed using a Mann–Whitney test. Statistical significance was set at P ≤ 0.05. A five-parameter logistic equation was used for asymmetric sigmoidal curve fitting and for EC50 and IC50 determination. The Venn diagram in Fig. 1F was prepared using BioVenn web application. Characteristics of the chemical and physical properties of Prestwick library compounds were obtained from Supplementary Table S1 from reference. Characteristics of the hit compounds not included in the Prestwick library were retrieved from the PubChem database.

S. flexneri 5a M90T = test: MIC in tryptic soy broth, S. flexneri; format: cell-based, Shigella flexneri
Description: as §1

non-growing UPEC CFT073 [2] = test: Dose-dependent killing analysis (CFU spot-plating) of stationary-phase UPEC; format: cell-based, Escherichia coli; details: E. coli in 1:4 CA-MHB (pH 7.4); for Δlog10(CFU/ml): average killing vs before treatment (8.977)
Description: To differentiate between these scenarios, we used CFU counting by agar plating to assess the bactericidal effect on non-growing bacteria. […] Conversely, if no significant reduction in CFU is observed, the regrowth delay is due to PAE without killing. […] Fluoroquinolones are known to cause PAE after treatment of growing bacterial cultures.
For survival analysis, bacteria were cultivated as described for the dose–response dilution-regrowth assay. Assays with UPEC were conducted at the CBCS screening facility using 96-well plates with a 200 μl sample volume, and compounds were dispensed using the Echo® (Labcyte) system. P. aeruginosa and S. aureus samples were treated according to the protocol used for the dilution-regrowth experiments. Treated samples were serially diluted 10-fold in PBS, and 10 μl drops were spot-plated onto rectangular LB agar plates using either a Beckman NXP robot (for UPEC) or an Integra VIAFLO96 electronic pipette (for P. aeruginosa and S. aureus). The LB agar plates were incubated overnight at 37 °C and scanned. Colonies were counted at the spots of the lowest dilution where individual colonies could be accurately distinguished. Each colony was manually marked on a separate image layer using the GNU Image Manipulation Program, and counted using NIST’s Integrated Colony Enumerator (NICE 1.4) software. The experiments were performed in three biological replicates.

P. aeruginosa DSM1117 = test: MIC, standard microdilution assay, growing P. aeruginosa; format: cell-based, Pseudomonas aeruginosa; details: P. aeruginosa, CA-MHB pH 7.4, read-out: MIC (μM) CA-MHB
Description: as §1

S. aureus DSM2569 = test: MIC, standard microdilution assay, growing S. aureus; format: cell-based, Staphylococcus aureus; details: Staphylococcus aureus, DSM2569; S. aureus; CA-MHB pH 7.4; read-out: MIC (μM) CA-MHB
Description: as §1

## CCC[C@H](NC(=O)/C(C#N)=C/c1cccc(Br)n1)c1ccccc1 [Degrasyn]
E. coli CFT073 (UPEC); 1:4 diluted CA-MHB, read-out: MIC (μM) 1:4 CA-MHB
  MIC: >80 µM
E. coli CFT073 (UPEC); CA-MHB with 10 μg/ml efflux pump inhibitor PaβN
  MIC (μM) CA-MHB +PAβN: >80 µM
E. coli CFT073 (UPEC); CA-MHB, read-out: MIC (μM) CA-MHB
  MIC: >80 µM
non-growing UPEC CFT073 [1]; E. coli in 1:4 CA-MHB (pH 7.4), 0.25 μM
  OD600 at 6hr, Mean: 0.603
non-growing UPEC CFT073 [1]; E. coli in 1:4 CA-MHB (pH 7.4), 0.5 μM
  OD600 at 6hr, Mean: 0.604
non-growing UPEC CFT073 [1]; E. coli in 1:4 CA-MHB (pH 7.4), 1 μM
  OD600 at 6hr, Mean: 0.558
non-growing UPEC CFT073 [1]; E. coli in 1:4 CA-MHB (pH 7.4), 2.5 μM
  OD600 at 6hr, Mean: 0.295
non-growing UPEC CFT073 [1]; E. coli in 1:4 CA-MHB (pH 7.4), 5 μM
  OD600 at 6hr, Mean: 0.108
non-growing UPEC CFT073 [1]; E. coli in 1:4 CA-MHB (pH 7.4), 10 μM
  OD600 at 6hr, Mean: 0.069
non-growing UPEC CFT073 [1]; E. coli in 1:4 CA-MHB (pH 7.4), 30 μM
  OD600 at 6hr, Mean: 0.079
non-growing UPEC CFT073 [1]; E. coli in LPM (pH 5.5), 0.25 μM
  OD600 at 6hr, Mean: 0.554
non-growing UPEC CFT073 [1]; E. coli in LPM (pH 5.5), 0.5 μM
  OD600 at 6hr, Mean: 0.565
non-growing UPEC CFT073 [1]; E. coli in LPM (pH 5.5), 1 μM
  OD600 at 6hr, Mean: 0.575
non-growing UPEC CFT073 [1]; E. coli in LPM (pH 5.5), 2.5 μM
  OD600 at 6hr, Mean: 0.579
non-growing UPEC CFT073 [1]; E. coli in LPM (pH 5.5), 5 μM
  OD600 at 6hr, Mean: 0.583
non-growing UPEC CFT073 [1]; E. coli in LPM (pH 5.5), 10 μM
  OD600 at 6hr, Mean: 0.582
non-growing UPEC CFT073 [1]; E. coli in LPM (pH 5.5), 30 μM
  OD600 at 6hr, Mean: 0.588
non-growing UPEC CFT073 [1]
  EC50: 2.22 µM
S. flexneri 5a M90T; S. flexneri, extracellular bacteria in TSB
  MIC (μM) TSB: >128 µM
non-growing UPEC CFT073 [2]; 0.25 μM
  Log10(CFU/ml), Replicate #1: 9.301 Log10(CFU/ml)
  Log10(CFU/ml), Replicate #2: 8.699 Log10(CFU/ml)
  Log10(CFU/ml), Replicate #3: 9.079 Log10(CFU/ml)
  Δlog10(CFU/ml): -0.049 log10(CFU/ml)
non-growing UPEC CFT073 [2]; 0.5 μM
  Log10(CFU/ml), Replicate #1: 9.279 Log10(CFU/ml)
  Log10(CFU/ml), Replicate #2: 8.505 Log10(CFU/ml)
  Log10(CFU/ml), Replicate #3: 8.602 Log10(CFU/ml)
  Δlog10(CFU/ml): 0.182 log10(CFU/ml)
non-growing UPEC CFT073 [2]; 1 μM
  Log10(CFU/ml), Replicate #1: 9.204 Log10(CFU/ml)
  Log10(CFU/ml), Replicate #2: 8.477 Log10(CFU/ml)
  Log10(CFU/ml), Replicate #3: 9.204 Log10(CFU/ml)
  Δlog10(CFU/ml): 0.016 log10(CFU/ml)
non-growing UPEC CFT073 [2]; 2.5 μM
  Log10(CFU/ml), Replicate #1: 9.204 Log10(CFU/ml)
  Log10(CFU/ml), Replicate #2: 8.845 Log10(CFU/ml)
  Log10(CFU/ml), Replicate #3: 8.301 Log10(CFU/ml)
  Δlog10(CFU/ml): 0.194 log10(CFU/ml)
non-growing UPEC CFT073 [2]; 5 μM
  Log10(CFU/ml), Replicate #1: 8.954 Log10(CFU/ml)
  Log10(CFU/ml), Replicate #2: 6.778 Log10(CFU/ml)
  Log10(CFU/ml), Replicate #3: 7.176 Log10(CFU/ml)
  Δlog10(CFU/ml): 1.341 log10(CFU/ml)
non-growing UPEC CFT073 [2]; 10 μM
  Log10(CFU/ml), Replicate #1: 6.623 Log10(CFU/ml)
  Log10(CFU/ml), Replicate #2: 6.699 Log10(CFU/ml)
  Log10(CFU/ml), Replicate #3: 6.532 Log10(CFU/ml)
  Δlog10(CFU/ml): 2.359 log10(CFU/ml)
P. aeruginosa DSM1117
  MIC: >80 µM

## colistin
non-growing UPEC CFT073 [1]
  activity in the dilution-regrowth screen: not identified as hits

## CC[C@H]1OC(=O)C[C@@H](O)[C@H](C)[C@@H](O[C@@H]2O[C@H](C)[C@@H](O[C@H]3C[C@@](C)(O)[C@@H](O)[C@H](C)O3)[C@H](N(C)C)[C@H]2O)[C@@H](CC=O)C[C@@H](C)C(=O)/C=C/C(C)=C/[C@@H]1CO[C@@H]1O[C@H](C)[C@@H](O)[C@@H](OC)[C@H]1OC [Tylosin]
E. coli CFT073 (UPEC); Escherichia coli, 1:4 diluted CA-MHB, read-out: MIC (μM) 1:4 CA-MHB
  MIC: 160 µM (≈ 147 µg/mL)
E. coli CFT073 (UPEC); Escherichia coli, CA-MHB, read-out: MIC (μM) CA-MHB
  MIC: 160 µM (≈ 147 µg/mL)
non-growing UPEC CFT073 [1]; Escherichia coli
  EC50: 7.28 µM
S. flexneri 5a M90T; Shigella flexneri, 5AM90T, read-out: MIC (μM) TSB
  MIC: 128 µM (≈ 117 µg/mL)
S. aureus DSM2569
  MIC: 1 µM (≈ 0.916 µg/mL)
P. aeruginosa DSM1117; Pseudomonas aeruginosa, DSM1117
  MIC: > 160 µM

## CC[C@H]1OC(=O)[C@H](C)C(=O)[C@H](C)[C@@H](O[C@@H]2O[C@H](C)C[C@H](N(C)C)[C@H]2O)[C@](C)(OC)C[C@@H](C)C(=O)[C@H](C)[C@H]2N(CCCCn3cnc(-c4cccnc4)c3)C(=O)O[C@]12C [telithromycin]
non-growing UPEC CFT073 [1]
  activity in the dilution-regrowth screen: no activity
